Measured values from patent publication US20230192878A1, “METHODS, THERAPIES AND USES FOR TREATING CANCER” (PFIZER INC., priority 2020, published 2023).

Key:
RPMI8226 [1] = assay: Cell surface BCMA expression after GSI, time course and washout; format: cell-based
Experimental: (§1) Multiple myeloma cells (MM.1S, OPM2, H929, Molp8, RPMI8226) were seeded in a 6-well plate at 800,000 cells/2 ml/well with GSI diluted at 1 μM in RPMI medium (with 0.1% DMSO). Cells were collected to evaluate cell surface BCMA expression at baseline, and then at 3 hours, 6 hours and 24 hours after addition of the GSI. After 24 hours of incubation with the GSI, cells were washed twice in PBS and re-plated in fresh 6-well plates. […] At the indicated time points, samples were stained with a ZombieNIR Viability dye (Biolegend) for 20 minutes at room temperature at 1 in 500 dilution in PBS, washed with PBS+2% FBS and further stained with anti-BCMA PE-labelled antibody diluted in PBS+2% FBS for 30 minutes at 4° C. Samples were acquired on BD Flow Cytometer and analyzed using FlowJo software. Dead cells were removed from the analysis by gating on ZombieNIR negative population. BCMA MFI was plotted as a histogram.

H929 [2] = assay: as above; format: cell-based
Experimental: as §1

Molp8 = assay: as above; format: cell-based
Experimental: as §1

MM.1S = assay: as above; format: cell-based
Experimental: as §1

OPM2 = assay: as above; format: cell-based
Experimental: as §1

RPMI8226 [3] = assay: Soluble BCMA (sBCMA) shedding after GSI (ELISA); format: cell-based, Human; parameters: unit not given here; details: Table 6 (sBCMA in supernatant, ELISA), 24 hours
Experimental: (§2) Multiple myeloma cells (MM.1S, OPM2, H929, Molp8, RPMI8226) were seeded in a 96-well U-bottom plate at 40,000 cells/well. Cells were incubated for 24 hours in the presence of GSI diluted in RPMI medium (0.1% DMSO). The following concentrations of the GSI were tested: 1000 nM, 500 nM, 100 nM, 50 nM, 25 nM, 10 nM, 5 nM, 2.5 nM, 1 nM, 0.1 nM, 0.01 nM. After 24 hours, cell culture medium was collected and concentration of sBCMA was measured in supernatants using Human BCMA/TNFRSF17 DuoSet ELISA kit (R&D Systems) according to manufacturer's instructions.

H929 [4] = assay: Soluble BCMA (sBCMA) shedding after GSI (ELISA); format: cell-based, Human; parameters: unit not given here; details: Table 6 (sBCMA in supernatant, ELISA), 24 hours
Experimental: as §2

Molp8-luc = assay: BCMAxCD3 bispecific mediated cell killing with human T cells, with or without GSI; format: cell-based; details: 60 hours, with or without 1 μM GSI
Experimental: CD3^+ T cells from PBMCs (Stem Cell Technologies) were negatively selected using EasySep Human T cell enrichment kit (Stem Cell Technologies). Multiple myeloma cells expressing luciferase (MM.1S-luc, OPM2-luc, H929-luc, Molp8-luc, RPM18226-luc) were treated with 1 μM GSI […]. After 24 hours, cells were seeded with 50,000 CD3^+ pan T cells in a clear 96-well V-bottom plate. Cells were further treated with a range of BCMAxCD3 bispecific antibody concentrations with or without 1 μM GSI. 60 hours after treatment, luciferase activity in treated cells was analyzed using NeoLite reagent kit (Perkin Elmer) and acquired on VictorX multimode plate reader (Perkin Elmer). Cell viability was calculated by dividing luciferase activity of treated cells over luciferase activity of untreated control (no BCMAxCD3 bispecific antibody added).

CCC[C@H](N[C@H]1CCc2cc(F)cc(F)c2C1)C(=O)Nc1cn(C(C)(C)CNCC(C)(C)C)cn1 [GSI, nirogacestat]
BCMA (-PE) MFI (RPMI8226 [1]; RPMI8226, GSI 1 μM for 24 h, 3 h post wash): 6557
BCMA (-PE) MFI (RPMI8226 [1]; RPMI8226, GSI 1 μM for 24 h, 5 h post wash): 4437
BCMA (-PE) MFI (RPMI8226 [1]; RPMI8226, GSI 1 μM for 24 h, 24 h post wash): 2688
BCMA (-PE) MFI (RPMI8226 [1]; RPMI8226, GSI 1 μM, 3 h after GSI): 4437
BCMA (-PE) MFI (RPMI8226 [1]; RPMI8226, GSI 1 μM, 6 h after GSI): 4527
BCMA (-PE) MFI (RPMI8226 [1]; RPMI8226, GSI 1 μM, 24 h after GSI): 6340
BCMA (-PE) MFI (H929 [2]; H929, GSI 1 μM for 24 h, 3 h post wash): 15422
BCMA (-PE) MFI (H929 [2]; H929, GSI 1 μM for 24 h, 5 h post wash): 9313
BCMA (-PE) MFI (H929 [2]; H929, GSI 1 μM for 24 h, 24 h post wash): 8423
BCMA (-PE) MFI (H929 [2]; H929, GSI 1 μM, 3 h after GSI): 3653
BCMA (-PE) MFI (H929 [2]; H929, GSI 1 μM, 6 h after GSI): 3423
BCMA (-PE) MFI (H929 [2]; H929, GSI 1 μM, 24 h after GSI): 8245
BCMA (-PE) MFI (Molp8; Molp8, GSI 1 μM for 24 h, 3 h post wash): 7523
BCMA (-PE) MFI (Molp8; Molp8, GSI 1 μM for 24 h, 5 h post wash): 5050
BCMA (-PE) MFI (Molp8; Molp8, GSI 1 μM for 24 h, 24 h post wash): 2960
BCMA (-PE) MFI (Molp8; Molp8, GSI 1 μM, 3 h after GSI): 2461
BCMA (-PE) MFI (Molp8; Molp8, GSI 1 μM, 6 h after GSI): 3098
BCMA (-PE) MFI (Molp8; Molp8, GSI 1 μM, 24 h after GSI): 5307
BCMA (-PE) MFI (MM.1S; GSI 1 μM for 24 h, 3 h post wash): 33509
BCMA (-PE) MFI (MM.1S; GSI 1 μM for 24 h, 5 h post wash): 23906
BCMA (-PE) MFI (MM.1S; GSI 1 μM for 24 h, 24 h post wash): 11170
BCMA (-PE) MFI (MM.1S; GSI 1 μM, 3 h after GSI): 13690
BCMA (-PE) MFI (MM.1S; GSI 1 μM, 6 h after GSI): 14920
BCMA (-PE) MFI (MM.1S; GSI 1 μM, 24 h after GSI): 25602
BCMA (-PE) MFI (OPM2; OPM2, GSI 1 μM for 24 h, 3 h post wash): 21621
BCMA (-PE) MFI (OPM2; OPM2, GSI 1 μM for 24 h, 5 h post wash): 11050
BCMA (-PE) MFI (OPM2; OPM2, GSI 1 μM for 24 h, 24 h post wash): 2624
BCMA (-PE) MFI (OPM2; OPM2, GSI 1 μM, 3 h after GSI): 9257
BCMA (-PE) MFI (OPM2; OPM2, GSI 1 μM, 6 h after GSI): 9854
BCMA (-PE) MFI (OPM2; OPM2, GSI 1 μM, 24 h after GSI): 20592
BCMA (-PE) MFI (RPMI8226 [3]; RPMI8226, GSI 0.01 nM): 4710.8
BCMA (-PE) MFI (RPMI8226 [3]; RPMI8226, GSI 0.1 nM): 3333.8
BCMA (-PE) MFI (RPMI8226 [3]; RPMI8226, GSI 1 nM): 2647.5
BCMA (-PE) MFI (RPMI8226 [3]; RPMI8226, GSI 2.5 nM): 2398
BCMA (-PE) MFI (RPMI8226 [3]; RPMI8226, GSI 5 nM): 2525.6
BCMA (-PE) MFI (RPMI8226 [3]; RPMI8226, GSI 10 nM): 1926.2
BCMA (-PE) MFI (RPMI8226 [3]; RPMI8226, GSI 25 nM): 836.5
BCMA (-PE) MFI (RPMI8226 [3]; RPMI8226, GSI 50 nM): 249.5
BCMA (-PE) MFI (RPMI8226 [3]; RPMI8226, GSI 100 nM): 64.1
BCMA (-PE) MFI (RPMI8226 [3]; RPMI8226, GSI 500 nM): 0 ± 0
BCMA (-PE) MFI (RPMI8226 [3]; RPMI8226, GSI 1000 nM): 0 ± 0
BCMA (-PE) MFI (H929 [4]; H929, GSI 0.01 nM): 24084.8
BCMA (-PE) MFI (H929 [4]; H929, GSI 0.1 nM): 27414.8
BCMA (-PE) MFI (H929 [4]; H929, GSI 1 nM): 19516.4
BCMA (-PE) MFI (H929 [4]; H929, GSI 2.5 nM): 12874.8
BCMA (-PE) MFI (H929 [4]; H929, GSI 5 nM): 8438.2
BCMA (-PE) MFI (H929 [4]; H929, GSI 10 nM): 4901.7
BCMA (-PE) MFI (H929 [4]; H929, GSI 25 nM): 2336.4
BCMA (-PE) MFI (H929 [4]; H929, GSI 50 nM): 1460.7
BCMA (-PE) MFI (H929 [4]; H929, GSI 100 nM): 1110.6
BCMA (-PE) MFI (H929 [4]; H929, GSI 500 nM): 716.5
BCMA (-PE) MFI (H929 [4]; H929, GSI 1000 nM): 625.1

PF-06863135: heterodimeric humanized full-length bispecific antibody with one BCMA binding arm and one CD3 binding arm
Molp8 cell viability (% control) (Molp8-luc; BCMA × CD3 0.00001 nM): 64 ± 11.6 % control
Molp8 cell viability (% control) (Molp8-luc; BCMA × CD3 0.00005 nM): 59.1 ± 4.6 % control
Molp8 cell viability (% control) (Molp8-luc; BCMA × CD3 0.00026 nM): 58.5 ± 0.6 % control
Molp8 cell viability (% control) (Molp8-luc; BCMA × CD3 0.00128 nM): 66.7 ± 0.3 % control
Molp8 cell viability (% control) (Molp8-luc; BCMA × CD3 0.0064 nM): 55.2 ± 1.3 % control
Molp8 cell viability (% control) (Molp8-luc; BCMA × CD3 0.032 nM): 66.1 ± 4.9 % control
Molp8 cell viability (% control) (Molp8-luc; BCMA × CD3 0.16 nM): 8 ± 2 % control
Molp8 cell viability (% control) (Molp8-luc; BCMA × CD3 0.8 nM): 6.1 ± 0.7 % control
Molp8 cell viability (% control) (Molp8-luc; BCMA × CD3 4 nM): 5.2 ± 0.3 % control
